Source: BindingDB's records for patent WO2022093820 (GENENTECH, INC., 2022)

Target: Phosphatidylinositol 3-kinase catalytic subunit type 3 (Homo sapiens, UniProt Q8NEB9)
Assay: VPS34 ADP-Glo kinase assay
Procedure: Experimental compound in DMSO was dispensed to a 384-well microplate via acoustic dispenser at 50 nl per well. […] Assay buffer conditions were as follows: 50 mM HEPES, pH 7.5, 3 mM MnCl2, 0.01% BSA, 0.01% Brij 35, 1 mM TCEP. The 5 µl reaction was incubated for 90 minutes at room temperature, and then quenched with equal volume of ADP-Glo Reagent (5 µl; Promega). Quenched reaction was incubated for 60 min, followed by addition of an equal volume of Kinase Detection Reagent (10 µl; Promega). Luminescence signal was detected on an Envision (Perkin Elmer).

Chain of Phosphatidylinositol 3-kinase catalytic subunit type 3 (Q8NEB9 whole entry): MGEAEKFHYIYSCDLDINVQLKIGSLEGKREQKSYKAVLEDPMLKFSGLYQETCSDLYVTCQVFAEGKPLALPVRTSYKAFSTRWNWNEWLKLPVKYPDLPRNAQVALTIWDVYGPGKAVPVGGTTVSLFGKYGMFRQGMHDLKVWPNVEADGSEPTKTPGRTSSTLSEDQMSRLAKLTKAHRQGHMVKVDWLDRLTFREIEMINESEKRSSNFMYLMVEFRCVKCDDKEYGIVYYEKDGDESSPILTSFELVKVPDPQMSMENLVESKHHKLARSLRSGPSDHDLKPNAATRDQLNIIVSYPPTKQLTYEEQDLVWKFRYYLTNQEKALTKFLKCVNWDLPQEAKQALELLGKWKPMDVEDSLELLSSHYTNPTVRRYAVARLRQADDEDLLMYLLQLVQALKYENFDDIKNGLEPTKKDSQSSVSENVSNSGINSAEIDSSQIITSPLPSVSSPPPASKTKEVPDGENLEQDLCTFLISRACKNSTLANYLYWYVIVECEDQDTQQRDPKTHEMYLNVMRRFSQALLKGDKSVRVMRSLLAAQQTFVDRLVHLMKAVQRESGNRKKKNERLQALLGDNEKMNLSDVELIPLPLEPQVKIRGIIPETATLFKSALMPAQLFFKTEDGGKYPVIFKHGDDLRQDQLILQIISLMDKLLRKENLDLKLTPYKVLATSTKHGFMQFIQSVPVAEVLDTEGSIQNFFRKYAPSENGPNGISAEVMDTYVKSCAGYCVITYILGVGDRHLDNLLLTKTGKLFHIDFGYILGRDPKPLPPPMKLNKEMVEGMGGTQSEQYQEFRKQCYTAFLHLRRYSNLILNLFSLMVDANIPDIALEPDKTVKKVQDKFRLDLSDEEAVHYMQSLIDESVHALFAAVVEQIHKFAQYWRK

| Compound | IC50 [nM] |
| --- | --- |
| C[C@@H]1COCCN1c1cc2n(n1)[C@](C)(C1CC1)CNC2=O [WO2022093820, Compound 23] | 41 |
| COC[C@]1(C(C)C)CNC(=O)c2cc(N3CCOC[C@H]3C)nn21 [WO2022093820, Compound 54] | 563 |
| CC(C)C1(CO)CNC(=O)c2cc(N3CCOC[C@H]3C)nn21 (stereo partly specified) [WO2022093820, Compound 50] | 847 |
| C[C@@H]1COCCN1c1cc2n(n1)[C@H](CC(F)(F)F)CNC2=O [WO2022093820, Compound 59] | 36000 |
| CC(C)[C@H]1n2nc(N3CCOC[C@H]3C)cc2C(=O)NC12CC2 [WO2022093820, Compound 33] | 24 |
| C[C@@H]1COCCN1c1cc2n(n1)[C@@](C)(C1CCC1)CNC2=O [WO2022093820, Compound 45] | 260 |
| C[C@H](CO)[C@@H]1CNC(=O)c2cc(N3CCOC[C@H]3C)nn21 [WO2022093820, Compound 67] | 32400 |
| CC(C)[C@@H]1n2nc(N3CCOC[C@H]3C)cc2C(=O)NC12CC2 [WO2022093820, Compound 34] | 21000 |
| CC[C@@]1(C2CC2)CNC(=O)c2cc(N3CCOC[C@H]3C)nn21 [WO2022093820, Compound 27] | 32 |
| C[C@@H]1COCCN1c1cc2n(n1)[C@H](C1(C)CC1)CNC2=O [WO2022093820, Compound 11] | 56 |
| C[C@@H]1COCCN1c1cc2n(n1)[C@](C)(C1CCC1)CNC2=O [WO2022093820, Compound 44] | 4000 |
| C[C@@H]1COCCN1c1cc2n(n1)C([C@@H](C)c1ccccc1)CNC2=O (stereo partly specified) [WO2022093820, Compound 56] | 119 |
| C[C@@H]1COCCN1c1cc2n(n1)[C@@H]1CCC(C)(C)[C@@H]1NC2=O [WO2022093820, Compound 41] | 51 |
| CC(C)C[C@@H]1CNC(=O)c2cc(N3CCOC[C@H]3C)nn21 [WO2022093820, Compound 61] | 12800 |
| CC(C)[C@@]1(C)CNC(=O)c2cc(N3CCOC[C@H]3C)nn21 [WO2022093820, Compound 26] | 2170 |
| CC[C@@H]1CNC(=O)c2cc(N3CCOC[C@H]3C)nn21 [WO2022093820, Compound 46] | 12800 |
| C[C@@H]1COCCN1c1cc2n(n1)C(C)(C)CNC2=O [WO2022093820, Compound 71] | 919 |
| C[C@H](CO)C1CNC(=O)c2cc(N3CCOC[C@H]3C)nn21 (stereo partly specified) [WO2022093820, Compound 70] | 532 |
| C[C@H](c1ccccc1)[C@@H]1CNC(=O)c2cc(N3CCOC[C@H]3C)nn21 [WO2022093820, Compound 57] | 50000 |
| C[C@@H]1COCCN1c1cc2n(n1)[C@@](C)(C1CC1)C1(CC1)NC2=O [WO2022093820, Compound 30] | 1750 |
| C[C@@H]1COCCN1c1cc2n(n1)[C@@H](C1(C)CC1)CNC2=O [WO2022093820, Compound 12] | 3350 |

| Compound | IC50 [nM] |
| --- | --- |
| C[C@@H]1COCCN1c1cc2n(n1)[C@H]([C@@H](C)c1ccccc1)CNC2=O [WO2022093820, Compound 58] | 388 |
| CC[C@@H](C)C[C@H]1CNC(=O)c2cc(N3CCOC[C@H]3C)nn21 [WO2022093820, Compound 64] | 33600 |
| C[C@@H]1COCCN1c1cc2n(n1)[C@H]([C@@H](C)CO)CNC2=O [WO2022093820, Compound 68] | 27300 |
| C[C@@H]1COCCN1c1cc2n(n1)[C@H](C1(c3ccccc3)CC1)CNC2=O [WO2022093820, Compound 48] | 100 |
| C[C@H](c1ccccc1)C1CNC(=O)c2cc(N3CCOC[C@H]3C)nn21 (stereo partly specified) [WO2022093820, Compound 55] | 50000 |
| CC(C)C[C@H]1CNC(=O)c2cc(N3CCOC[C@H]3C)nn21 [WO2022093820, Compound 62] | 739 |
| C[C@@H]1COCCN1c1cc2n(n1)[C@](C)(C1CC1)C1(CC1)NC2=O [WO2022093820, Compound 29] | 27 |
| C[C@@H]1COCCN1c1cc2n(n1)[C@@H](C1(c3ccccc3)CC1)CNC2=O [WO2022093820, Compound 49] | 35000 |
| C[C@@H]1COCCN1c1cc2n(n1)[C@H](C(F)(F)C(F)(F)F)CNC2=O [WO2022093820, Compound 15] | 52 |
| COC[C@@]1(C(C)C)CNC(=O)c2cc(N3CCOC[C@H]3C)nn21 [WO2022093820, Compound 53] | 36200 |
| C[C@@H]1COCCN1c1cc2n(n1)C[C@@H](CC(F)(F)F)NC2=O [WO2022093820, Compound 52] | 24700 |
| C[C@@H]1COCCN1c1cc2n(n1)[C@@](C)(C1CC1)CNC2=O [WO2022093820, Compound 24] | 1340 |
| CC[C@H]1CNC(=O)c2cc(N3CCOC[C@H]3C)nn21 [WO2022093820, Compound 47] | 747 |
| CC[C@]1(C2CC2)CNC(=O)c2cc(N3CCOC[C@H]3C)nn21 [WO2022093820, Compound 28] | 1300 |
| CC(C)[C@]1(C)CNC(=O)c2cc(N3CCOC[C@H]3C)nn21 [WO2022093820, Compound 25] | 90 |
| CC[C@H](C)C[C@@H]1CNC(=O)c2cc(N3CCOC[C@H]3C)nn21 [WO2022093820, Compound 65] | 109 |
| C[C@@H]1COCCN1c1cc2n(n1)[C@@H](CC(F)(F)F)CNC2=O [WO2022093820, Compound 60] | 429 |
| C[C@@H]1COCCN1c1cc2n(n1)C[C@H](CC(F)(F)F)NC2=O [WO2022093820, Compound 51] | 682 |
| C[C@@H]1COCCN1c1cc2n(n1)[C@@H](C(F)(F)C(F)(F)F)CNC2=O [WO2022093820, Compound 16] | 50000 |
| C[C@@H]1COCCN1c1cc2n(n1)C([C@@H](C)CO)CNC2=O (stereo partly specified) [WO2022093820, Compound 69] | 784 |
